The text below walks through data of patent publication US20240139142A1, “METHOD FOR PREVENTING OR TREATING LIVER DISEASE” (priority 2022, published 2024).

For series [1], the system named is liver hepatocellular carcinoma cell line SNU-449. In words: MTS analysis, growth inhibition (GI50). The settings on record: for GI50: Homo sapiens. It is filed as cell-based.
The subject of series [2] is liver hepatocellular carcinoma cell line Mahlavu. In words: MTS analysis, growth inhibition (GI50). As to conditions: read-out: GI50, Mahlavu liver hepatocellular carcinoma cell line. It is filed as cell-based.
For another series, the system named is cancer cells. The settings on record: background statement; cited from earlier work.
The subject of series [3] is liver hepatocellular carcinoma cell line SNU-449. In words: MTS assay cell growth, selectivity test. Type of series: cell-based. As to conditions: SNU-449 vs THLE-2, MTS assay. (Formazan colour is commonly taken as a measure of viable cells.)
For series [4], the system named is Hepatitis B virus-induced ROS in Huh-7 cells. In words: Removal of HBV-induced ROS, DHE fluorescence. It is filed as cell-based, human. As to conditions: Huh-7 transfected with pGEM C12, 5 μM PCH1152, 10 μM NAC. How it is done:
To examine the effect of PCH1152, NAC or the combination thereof on removing HBV-induced ROS, the Huh-7 cells were remained untreated, or treated with 5 μM PCH1152, 10 μM NAC or 5 μM PCH 1152 plus 10 μM NAC. The ROS was examined by DHE fluorescence, and the difference between each group was compared by Tukey's Multiple Comparison Test.

The test system of series [5] is SNU-449 liver hepatocellular carcinoma cell line. In words: Western blot of apoptosis markers (cleaved caspase 8, cleaved PARP). As to conditions: 0.3 μM, 0, 24, 48 and 72 hours. Type of series: cell-based. On the procedure:
SNU-449 liver hepatocellular carcinoma cell line was treated by 0.3 μM isothiocyanate structural modified compounds P1130 and PCH1152, and natural isothiocyanate compound PEITC, and the control group was treated by DSMO. After extracting the proteins in the cells at different time points, such as 0, 24, 48 and 72 hours, analysis and comparison were performed by using western blot. […] The results represent that the two structural modified compounds described above effectively promoted the apoptosis of the liver hepatocellular carcinoma cells (FIG. 1).
(In general: Immunoblotting shows a protein as a band on a membrane.)

In series [6] the test system is Mahlavu liver hepatocellular carcinoma cell line. In words: Expression of ABCC2, Twist and Mcl-1 after treatment. The settings on record: 2.5 μM, 64 hours. Type of series: cell-based. The source says: (§1) The process of trans-differentiating epithelial cells into motile mesenchymal cells is called epithelial-mesenchymal transition (EMT). EMT is indispensable in development, wound healing and stem cell behavior, and may induce fibrosis and carcinogenesis pathologically. In addition, EMT plays an important role in liver fibrosis, liver cirrhosis and liver hepatocellular carcinoma. […] Moreover, EMT may increase the anti-apoptosis effect, which will result in the development of drug resistance in cancer treatment, and induce the development of stemness of the cancer cells, as well as increase the number of cancer stem cells. The cancer stem cell is one of the important factors in the progression, recurrence, metastasis and drug resistance of the cancer. There is an evidence that in the samples of the liver hepatocellular carcinoma patients with poor prognosis, the overexpressions of Twist and Snail were observed. […] The results above represent that isothiocyanate structural modified compound of the present disclosure may prevent liver carcinogenesis and the growth, invasion, metastasis, progression and recurrence of liver hepatocellular carcinoma via inhibiting epithelial-mesenchymal transition, anti-apoptosis and/or inhibiting drug resistance.

For series [7], the system named is SNU-449 liver hepatocellular carcinoma cell line. The series is described as above. Type of series: cell-based. The settings on record: 2.5 μM, 64 hours.
Text: as §1

The test system is the same in series [8]. In words: Western blot, apoptosis and ABCC2/Mcl-1/Twist expression. Type of series: cell-based. The settings on record: low concentration.
Series [9] relates to human normal liver cell line THLE-2. The series is described as above. The settings on record: low concentration. It is filed as cell-based.
Series [10] relates to liver hepatocellular carcinoma cell line with Nexavar drug resistance. In words: Protein expression and apoptosis in drug-resistant cell line. Type of series: cell-based. The source says:
WT: wild-type liver hepatocellular carcinoma cell line. R: Nexavar-drug resistance-liver hepatocellular carcinoma cell line.
After treating liver hepatocellular carcinoma cell line with Nexavar drug resistance by PCH1130 or PCH1152, the expressions of molecules such as USP22, ABCC1, ABCC2 and Twist in liver hepatocellular carcinoma may be decreased, and the expressions of cleaved Caspase-8 and PARP may be increased, which induced the apoptosis of liver hepatocellular carcinoma cells.

The nature of series [11]: Safety test, median lethal dose (LD50), intravenous injection. The settings on record: in vivo, mouse. It is filed as in vivo. On the procedure:
(§2) The mouse xenograft model of liver hepatocellular carcinoma was administered with different concentrations of PCH1152 or P1130 via intravenous injection, and the median lethal dose (LD50) was calculated by the number of death and dosage.

Series [12] relates to mouse xenograft model of liver hepatocellular carcinoma. The description is as above. It is filed as in vivo. How it is done:
as §2

Series [13] has as its system wild-type liver hepatocellular carcinoma cell line SNU-499. In words: MTS assay cell viability IC50. Type of series: cell-based.
Series [14] has as its system Sorafenib-drug resistance-liver hepatocellular carcinoma cell line Hep3B. In words: MTS assay cell viability IC50. The settings on record: Homo sapiens. It is filed as cell-based. How it is done:
(§3) In order to look for the biomarkers of drug resistance for liver hepatocellular carcinoma, liver hepatocellular carcinoma cell line Hep3B and SNU-449 were continually cultured in an environment with Sorafenib, and the concentration of Sorafenib was increased gradually. Specifically, broth containing 3.5 μM to 10.8 μM Sorafenib was used as a starting concentration (compared to the IC50 of the cell), and the concentration increased 0.5 μM every week until the Sorafenib-drug resistance-liver hepatocellular carcinoma cell line was established. […] With the same experimental procedures as described above, the Sorafenib-drug resistance-cell line was also cultured in a cell broth containing Regorafenib, and the cell viability was tested by MTS assay.

Series [15] has as its system Sorafenib-drug resistance-liver hepatocellular carcinoma cell line SNU-499. In words: MTS assay cell viability IC50. Type of series: cell-based. On the procedure:
as §3

Series [16] deals with wild-type liver hepatocellular carcinoma cell line Hep3B. In words: MTS assay cell viability IC50. It is filed as cell-based. The settings on record: Homo sapiens. How it is done:
as §3

The mark [17] stands for this setting: SNU-449, MTS analysis, read-out: GI50, SNU-449 liver hepatocellular carcinoma cell line.
The mark [18] stands for this setting: read-out: The IC50 of Regorafenib, wild-type liver hepatocellular carcinoma cell line.
The mark [19] stands for this setting: read-out: The IC50 of Sorafenib, wild-type liver hepatocellular carcinoma cell line.

Molecules are shown by their SMILES. Like-named read-outs stand apart in the source and are kept apart here.

For orientation: GI50 means the concentration at which growth is held to half of that of the control. `S=C=NCc1ccccc1` [BITC, benzyl isothiocyanate]: the GI50 in series [1] (setting [17]) amounted to 9.58 µM; in series [2] (MTS analysis), 3.84 µM. In addition, in the series with cancer cells, the “dose needed to have the inhibiting effect on cancer cells” value is reported as ~10 mM.

For `COc1cccc2c1C(=O)c1c(O)c3c(c(O)c1C2=O)C[C@@](O)(C(=O)CO)C[C@@H]3O[C@H]1C[C@H](N)[C@H](O)[C@H](C)O1` [Doxorubicin, reference compound], the “selectivity between liver hepatocellular carcinoma cell and normal liver cell” value in [3] is recorded as “did not have selectivity”.

As to `CC(=O)N[C@@H](CS)C(=O)O` [NAC, N-acetylcysteine, reference compound], in series [4], the “HBV-induced ROS increasement” value is recorded as “significantly reduce”.

As a reminder, the LD50 is the dose expected to kill half of the subjects tested. Read a high LD50 as a less toxic substance. `COc1ccc(CCN=C=S)cc1` [P1130]: the GI50 in series [1] (SNU-449, read-out: GI50, SNU-449 liver hepatocellular carcinoma cell line) is 0.64 µM. In series [1] (compared to natural isothiocyanate compounds BITC or PEITC), the “increase of the ability of inhibiting the growth of the liver hepatocellular carcinoma cell line” value is given as 12 times. Besides, the GI50 in series [2] was found to be 1.52 µM. In series [5], the “expression levels of cleaved caspase 8 and cleaved PARP” value is reported as “significantly increased”. Moreover, the “expressions of ABCC2, Twist and Mcl-1” value in series [6] is “inhibition”. The “expressions of ABCC2, Twist and Mcl-1” value in series [7] was “inhibition”. Moreover, in [8], the “apoptosis of liver hepatocellular carcinoma cell line” value was “promote apoptosis”; the “expressions of ABCC2, Mcl-1 and Twist” value is recorded as “inhibit the expressions”. Besides, the “apoptosis promotion and inhibition of ABCC2, Mcl-1, Twist in human normal liver cell line” value in series [9] is recorded as “no such effect”. Further, in series [10], the “effect on drug resistance in liver hepatocellular carcinoma” value is on record as “reversing the drug resistance”; the “expressions of USP22, ABCC1, ABCC2 and Twist” value is “decreased”; the “expressions of cleaved Caspase-8 and PARP” value is given as “increased”. The compound further had an LD50 in series [11] of 100 to 300 mg/kg. Also, in series [12], the “toxicity relative to existing anticancer drug, e.g. Taxotere” value is given as “comparable”.

Take `S=C=NCCc1ccccc1` [PEITC, phenylethyl isothiocyanate, reference compound]: the GI50 in series [1] (setting [17]) amounted to 7.58 µM; in [2] (MTS analysis), 9.59 µM. For the same compound, the “expression levels of cleaved caspase 8 and cleaved PARP” value in series [5] was “only slightly increased”.

In general, IC50 refers to the concentration that gives 50% inhibition. For the compound `CNC(=O)c1cc(Oc2ccc(NC(=O)Nc3ccc(Cl)c(C(F)(F)F)c3)c(F)c2)ccn1` [Regorafenib], the values for the GI50 in series [1] (setting [17]) and in series [2] (MTS analysis) were 4.54 µM and 5 µM, respectively. Moreover, the half-maximal inhibitory concentration (IC50) in [13] (setting [18]) is 3.66 µM; in series [14] (Sorafenib-resistant, read-out: The IC50 of Regorafenib, drug resistance-liver hepatocellular carcinoma cell line) it was 8.33 µM; in [15] (SNU-499, Sorafenib-resistant, read-out: The IC50 of Regorafenib, drug resistance-liver hepatocellular carcinoma cell line) it was 14.5 µM; in series [16] (setting [18]) it was 4.28 µM.

As for `CNC(=O)c1cc(Oc2ccc(NC(=O)Nc3ccc(Cl)c(C(F)(F)F)c3)cc2)ccn1` [Sorafenib], the 50% growth inhibitory concentration (GI50) in series [1] (setting [17]) amounted to 2.34 µM; in series [2] (MTS analysis) it was 3.58 µM. Moreover, the IC50 in series [13] (setting [19]) was determined as 7.89 µM; in series [14] (read-out: The IC50 of Sorafenib, drug resistance-liver hepatocellular carcinoma cell line) it was 10.9 µM; in series [15] (SNU-499, read-out: The IC50 of Sorafenib, drug resistance-liver hepatocellular carcinoma cell line), 14.2 µM; in series [16] (setting [19]) it was 3.8 µM.
